Tests used:
cerebral organoids [1] = assay: RT-qPCR of marker gene expression after DAPT treatment; format: cell-based, human; settings: for expression of Hes1: single-cell DAPT method (step (iv))
Experimental: Total RNA was obtained with an RNeasyMicroKit (QIAGEN), and reverse transcription reaction was performed with a SuperScript III First-Strand Synthesis System ([…]) in accordance with a protocol from the provider. Quantitative PCR was carried out by using TaqMan (TM) Gene Expression Master Mix (Thermo Fisher Scientific Inc.) or SYBR Green Master Mix (Thermo Fisher Scientific Inc.) in accordance with instruction from the manufacturer. The expression levels of genes were normalized to that for GAPDH by using the […] method.
To analyze the influence of the DAPT treatment period on differentiation, cerebral organoids in week 7 of induction of differentiation were treated with 10 μM DAPT for 3 to 7 days according to a method or scheme shown in FIG. 16(A) (organoid DAPT method), and the variation of gene expression was analyzed by RT-qPCR; the results are shown in FIG. 16(B). The ordinate represents relative expression levels to GAPDH.
Furthermore, organoids on Day 25, Day 32, Day 39, and Day 72 (the periods of induction of differentiation: about 4 weeks, 5 weeks, 6 weeks, and 10 weeks, respectively) were cultured in the presence or absence of DAPT for 3 days, and the cerebral organoids on Day 28 (4 wk), Day 35 (5 wk), Day 42 (6 wk), and Day 75 (10 wk) were analyzed for the expression levels of marker genes by RT-qPCR; the results of analysis of the relative expression levels of the markers are shown in FIG. 18. […] For the organoids in week 10, no reduction in expression of Ki67 was found, and no influence was found in expression of Satb2, too.
In the “single-cell DAPT method (DAPT treatment is performed in step (iv))” in FIG. 24(B), cerebral organoids were screened on day 38 after the initiation of induction of differentiation and dispersed into single cells by the method described for step (iii) in Example 4, and the cells were then suspended in a culture medium obtained by adding 10 ng/mL GDNF, 20 ng/mL BDNF, 200 μM ascorbic acid, 400 μM dibutyryl-cAMP, and 30 μM Y-27632 to the culture medium in step (2b) with addition of DAPT at a concentration of 0 μM, 0.1 μM, 1 μM, or 10 μM. Subsequently, the cells were regathered by the method described for step (iv) in Example 4 in the presence of DAPT, and cultured for 1 day, 2 days, or 3 days. Thereafter, the culture medium was switched to a culture medium obtained by adding 10 ng/mL GDNF, 20 ng/mL BDNF, 200 μM ascorbic acid, and 400 μM dibutyryl-cAMP to the culture medium in step (2b), and culture was continued until day 10 after the initiation of reaggregation. The cells on day 3, day 4, or day 10 after the initiation of reaggregation were analyzed by RT-qPCR, and the cells on day 10 were analyzed by flow cytometry; the results are shown in FIGS. 25 to 27.

cerebral organoids [2] = assay: Immunostaining of cell aggregates after DAPT treatment; format: cell-based, human
Experimental: Organoids were fixed with 4% paraformaldehyde for 30 minutes, subjected to dehydration reaction with 30% (w/v) sucrose in PBS, and embedded with O.C.T. compound (Sakura Finetek Japan Co., Ltd.). Frozen sections were prepared in a thickness of 16 μm by using a cryostat (CM1850, Leica Biosystems Nussloch GmbH). Permeabilization was performed with 0.3% or 2% (v/v) Triton-X100, and, as necessary, antigen retrieval reaction was performed. Blocking was performed with Block ACE (KAC Co., Ltd.), and double- or triple-label staining was then performed. Primary antibodies and secondary antibodies for use in immunostaining were diluted to recommended concentrations before use.
As illustrated by a scheme shown in FIG. 11(A), in step (ii), cerebral organoids were screened on day 33 after the initiation of induction of differentiation (Day 33), the culture medium was replaced with one obtained by adding 10 μM DAPT to the culture medium in step (2b), and suspension culture was performed at 37° C. under 5% CO2 for 3 days. As a result, cerebral cortical cell aggregates were obtained.
The cerebral cortical cell aggregates (Day 36) and high-purity cerebral cortical cell aggregates (Day 40) were further immunostained for the cortical layer V/VI progenitor cell (deep layer) marker Ctip2, the telencephalon marker Foxg1, the neural stem cell (radial glia) marker […], and the proliferative cell marker Ki67.
Organoids on Day 25, Day 32, Day 39, and Day 72 (the periods of induction of differentiation: about 4 weeks, 5 weeks, 6 weeks, and 10 weeks, respectively) were cultured in the presence or absence of DAPT for 3 days, and the organoids on Day 28 (4 wk), Day 42 (6 wk), and Day 75 (10 wk) were analyzed for different markers by immunostaining. […] Satb2 is a cortical layer II-IV progenitor cell (upper layer) marker.

[3] = cerebral organoids in week 7, 10 μM DAPT for 3 to 7 days (organoid DAPT method)
[4] = organoids in week 4 to week 6, DAPT for 3 days
[5] = organoids in week 10, DAPT for 3 days
[6] = organoids Day 33, 10 μM DAPT for 3 days, Day 36

C[C@H](NC(=O)Cc1cc(F)cc(F)c1)C(=O)N[C@H](C(=O)OC(C)(C)C)c1ccccc1 [DAPT, N-[N-(3,5-difluorophenacetyl)-L-alanyl]-S-phenylglycine t-butyl ester]
expression of Ctip2 (cerebral organoids [1]; [3]): enhanced as the DAPT treatment period was prolonged
expressions of Pax6, Sox2, and Ki67 (cerebral organoids [1]; [3]): declined as the DAPT treatment period was extended
expression of Ctip2 (cerebral organoids [1]; [4]): enhanced expression
expression of Pax6 and Ki67 (cerebral organoids [1]; [4]): reduced expression
expression of Ki67 (cerebral organoids [1]; [5]): no reduction
expression of Satb2 (cerebral organoids [1]; [5]): no influence
expression of Hes1 (cerebral organoids [1]; 10 μM DAPT, 1-day and 2-day treatment, as culture proceeded): upregulated again
expression of Hes1 (cerebral organoids [1]; 10 μM DAPT, 3-day treatment): suppressed over the 10 days
expression of Hes1 (cerebral organoids [1]; DAPT 0.1 to 1 μM, 3 days): not sufficiently suppressed
cerebral cortex-like layered structure (immunostaining) (cerebral organoids [2]; [6]): no cerebral cortex-like layered structure was found
expression of Ki67 (immunostaining) (cerebral organoids [2]; [6]): almost no expression
number of Ctip2/Bf1-co-positive cells (cerebral organoids [2]; [4]): increased number
number of Ki67-positive cells (cerebral organoids [2]; [4]): decreased number
proportion of Ctip2-positive cells and that of Satb2-positive cells (cerebral organoids [2]; [5]): no significant change

Reference: patent publication US20240279602A1, “METHOD FOR PRODUCING CEREBRAL CORTICAL CELL PREPARATION DERIVED FROM HUMAN PLURIPOTENT STEM CELLS” (Kyoto University, priority 2021, published 2024)
